Values quoted from earlier work, collected in patent US20190336443A1 (Navinta III Inc, priority 2018, published 2019).

Key:
[1] = pH sensitive
[2] = all animal species with adequate studies (rodents and rabbits)

solubility in ethanol: slight solubility
degradation in a liquid formulation [1]: readily degraded by hydrolysis
Compound: NC(=O)c1ncn([C@@H]2O[C@H](CO)[C@@H](O)[C@H]2O)n1 [Ribavirin, 1-beta-D-ribofuranosyl-1H-1,2,4-triazole-3-carboxamide]
teratogenic and/or embryocidal potential [2]: significant teratogenic and/or embryocidal potential
